Where two headings read alike, the source gives them in different places.
Assays:
Format in all cases: in vivo, human
healthy volunteers [1] = assay: Clinical trial of inhaled 5-MeO-DMT in healthy volunteers: safety and tolerability
Protocol: (§1) A clinical trial was performed in which 5-MeO-DMT free base (purity not less than 99%) at different dose levels was administered via inhalation (as described in Example 1) in a single day to healthy volunteers who had prior experiences with the use of synthetic or naturally-occurring psychedelics. The trial was reviewed and approved by the relevant national competent authority and local medical ethics committee. The trial consisted of two parts: Part A, where single doses of 5-MeO-DMT dosage amounts of 2 mg, 6 mg, 12 mg and 18 mg were administered; and Part B, where an initial 5-MeO-DMT dosage amount of 6 mg was administered, and then, unless the participant had already experienced a peak psychedelic experience based on the PPEQ or the supervising physician had decided that further dose increases were inappropriate based on observed side effects, further subsequent dosage amounts of 12 mg and 18 mg were administered with about 3 hours in between each administration. Participants in Part A only received one dose and were not allowed to receive higher doses in later parts of Part A and were not allowed to participate in Part B. Participants were closely monitored for 3.5 hours after the last dose, with additional follow-up visits 1 day and 7 days after dosing. Various safety related measures (e.g., adverse event reporting, safety laboratory analyses, vital signs, ECG, CADSS, PVT, DSST, Prospective Memory Task (PMT)) as well as measures of the intensity of the psychedelic effects (MEQ30, ASC, PPEQ, subjective description of the psychedelic experience) were recorded. Pharmacokinetic analysis of 5-MeO-DMT and bufotenine plasma levels was performed at 1 hour and 3 hours after drug administration in Part A, and at 3 hours after drug administration in Part B.
(§2) 18 participants were recruited into Part A of the study and 4 participants were recruited into Part B. 9 Participants were female and 13 participants were male. Median age was 29 years (range: 19 to 42 years). In Part A, 4 participants received 2 mg, 6 participants received 6 mg, 4 participants received 12 mg and 4 participants received 18 mg of 5-MeO-DMT. In Part B, 1 participant received 6 mg, 2 participants received 6 mg and then 12 mg and one participant received 6 mg, 12 mg and then 18 mg of 5-MeO-DMT.

healthy volunteers [2] = assay: Clinical trial in healthy volunteers: intensity of the psychedelic effects (PPEQ); conditions: for PPEQ Intensity (0-100) / PPEQ Loss of Control (0-100) / PPEQ Profoundness (0-100) / PPEQ Total Score (0-100): group average
Protocol: as §1, §2
The Peak Psychedelic Experience Questionnaire (PPEQ) has been developed by the inventor as an improved alternative to the oceanic boundlessness dimension of the ASC and the MEQ30 to allow a simpler and quicker assessment of the intensity of a psychedelic experience. The PPEQ is comprised of three questions, all to be scored from 0 to 100 by marking a Visual Analogue Scale between 0 and 100 mm: • 1. How intense was the experience? • 2. To what extent did you lose control? • 3. How profound (i.e., deep and significant) was the experience?
The PPEQ Total Score is the average of the scores of the three questions. A “peak psychedelic experience” is identified through achievement of a PPEQ Total Score of at least 75. A statistically significant correlation between the PPEQ Total Score and the oceanic boundlessness dimension of the ASC, respectively the MEQ30 Total Score, has been observed in the data set described in Example 3.

[3] = Clinical trial in healthy volunteers: 5-MeO-DMT and bufotenine plasma levels; conditions: human, plasma, inhaled, read-out: 5-MeO-DMT plasma levels, group median; for concentration at 1 h: 1 hour after administration; for concentration at 3 h: 3 hours after administration
Protocol: as §1

[4] = Part A, 2 mg (n = 4), Administration day, mild
[5] = Part A, 6 mg (n = 6), Administration day, mild
[6] = Part A, 6 mg (n = 6), Day 1, mild
[7] = Part A, 18 mg (n = 4), Administration day, mild
[8] = Part A, 18 mg (n = 4), Day 1, mild
[9] = Part B, 12 mg (n = 3), after 6 mg, Administration day, mild
[10] = Part B max. dose (n = 4), highest dose for each participant (6, 12 or 18 mg)

COc1ccc2[nH]cc(CCN(C)C)c2c1 [5-MeO-DMT, 5-methoxy-N,N-dimethyltryptamine]
ECG, safety laboratory analyses, CADSS and cognitive tests (PVT, DSST, PMT) (healthy volunteers [1]; 2 mg to 18 mg via inhalation): unremarkable
inhalation-related adverse events (healthy volunteers [1]; Part A and Part B, 2 mg to 18 mg via inhalation): No inhalation-related adverse events
Adverse events reported: Nausea (number of volunteers) (healthy volunteers [1]; [4]): 2
Adverse events reported: Tachycardia (number of volunteers) (healthy volunteers [1]; [4]): 1
Adverse events reported: Vision blurred (number of volunteers) (healthy volunteers [1]; [4]): 1
Adverse events reported: Anxiety (number of volunteers) (healthy volunteers [1]; [5]): 1
Adverse events reported: Headache (number of volunteers) (healthy volunteers [1]; [5]): 1
Adverse events reported: Nausea (number of volunteers) (healthy volunteers [1]; [5]): 1
Adverse events reported: Clumsiness (number of volunteers) (healthy volunteers [1]; [6]): 1
Adverse events reported: Feeling hot (number of volunteers) (healthy volunteers [1]; [6]): 1
Adverse events reported: Headache (number of volunteers) (healthy volunteers [1]; [6]): 1
Adverse events reported: Anxiety (number of volunteers) (healthy volunteers [1]; Part A, 12 mg (n = 4), Administration day, mild): 1
Adverse events reported: Heart rate increased (number of volunteers) (healthy volunteers [1]; Part A, 12 mg (n = 4), Administration day, this event was moderate): 1^1
Adverse events reported: Headache (number of volunteers) (healthy volunteers [1]; [7]): 1
Adverse events reported: Nausea (number of volunteers) (healthy volunteers [1]; [7]): 1
Adverse events reported: Abnormal dreams (number of volunteers) (healthy volunteers [1]; [8]): 1
Adverse events reported: Fatigue (number of volunteers) (healthy volunteers [1]; [8]): 1
Adverse events reported: Hallucination (number of volunteers) (healthy volunteers [1]; [8]): 1
Adverse events reported: Hyperacusis (number of volunteers) (healthy volunteers [1]; [8]): 1
Adverse events reported: Insomnia (number of volunteers) (healthy volunteers [1]; [8]): 1
Adverse events reported: Mental fatigue (number of volunteers) (healthy volunteers [1]; [8]): 1
Adverse events reported: Flashback (number of volunteers) (healthy volunteers [1]; Part A, 18 mg (n = 4), Day 7, mild): 1
Adverse events reported: Nausea (number of volunteers) (healthy volunteers [1]; Part B, 6 mg (n = 4), Administration day, mild): 1
Adverse events reported: Fatigue (number of volunteers) (healthy volunteers [1]; [9]): 1
Adverse events reported: Head discomfort (number of volunteers) (healthy volunteers [1]; [9]): 1
Adverse events reported: Headache (number of volunteers) (healthy volunteers [1]; [9]): 1
Adverse events reported: Nausea (number of volunteers) (healthy volunteers [1]; [9]): 1
Adverse events reported (healthy volunteers [1]; Part B, 18 mg (n = 1), after 12 mg and 6 mg): None reported
changes in vital parameters (healthy volunteers [1]; shortly after administration, 2 mg to 18 mg via inhalation): temporary, not clinically relevant increase in heart rate and blood pressure
PPE achieved (fraction of participants who achieved a PPEQ Total Score of at least 75) (healthy volunteers [2]; Part A 2 mg (n = 4)): 0/4
PPEQ Intensity (0-100) (healthy volunteers [2]; Part A 2 mg (n = 4)): 16
PPEQ Loss of Control (0-100) (healthy volunteers [2]; Part A 2 mg (n = 4)): 4
PPEQ Profoundness (0-100) (healthy volunteers [2]; Part A 2 mg (n = 4)): 7
PPEQ Total Score (0-100) (healthy volunteers [2]; Part A 2 mg (n = 4)): 9.0
PPE achieved (fraction of participants who achieved a PPEQ Total Score of at least 75) (healthy volunteers [2]; Part A 6 mg (n = 6)): 1/6
PPEQ Intensity (0-100) (healthy volunteers [2]; Part A 6 mg (n = 6)): 53
PPEQ Loss of Control (0-100) (healthy volunteers [2]; Part A 6 mg (n = 6)): 37
PPEQ Profoundness (0-100) (healthy volunteers [2]; Part A 6 mg (n = 6)): 42
PPEQ Total Score (0-100) (healthy volunteers [2]; Part A 6 mg (n = 6)): 43.8
PPE achieved (fraction of participants who achieved a PPEQ Total Score of at least 75) (healthy volunteers [2]; Part A 12 mg (n = 4)): 2/4
PPEQ Intensity (0-100) (healthy volunteers [2]; Part A 12 mg (n = 4)): 78
PPEQ Loss of Control (0-100) (healthy volunteers [2]; Part A 12 mg (n = 4)): 69
PPEQ Profoundness (0-100) (healthy volunteers [2]; Part A 12 mg (n = 4)): 51
PPEQ Total Score (0-100) (healthy volunteers [2]; Part A 12 mg (n = 4)): 65.5
PPE achieved (fraction of participants who achieved a PPEQ Total Score of at least 75) (healthy volunteers [2]; Part A 18 mg (n = 4)): 1/4
PPEQ Intensity (0-100) (healthy volunteers [2]; Part A 18 mg (n = 4)): 62
PPEQ Loss of Control (0-100) (healthy volunteers [2]; Part A 18 mg (n = 4)): 80
PPEQ Profoundness (0-100) (healthy volunteers [2]; Part A 18 mg (n = 4)): 36
PPEQ Total Score (0-100) (healthy volunteers [2]; Part A 18 mg (n = 4)): 59.2
PPE achieved (fraction of participants who achieved a PPEQ Total Score of at least 75) (healthy volunteers [2]; [10]): 4/4
PPEQ Intensity (0-100) (healthy volunteers [2]; [10]): 97
PPEQ Loss of Control (0-100) (healthy volunteers [2]; [10]): 94
PPEQ Profoundness (0-100) (healthy volunteers [2]; [10]): 78
PPEQ Total Score (0-100) (healthy volunteers [2]; [10]): 89.3
first psychedelic symptoms after the inhalation (onset) (healthy volunteers [2]; all participants, 2 mg to 18 mg via inhalation): within a few seconds
concentration at 1 h ([3]; 2 mg, Part A 2 mg (n = 4), range 0.03-0.69): 0.38 ng/mL
concentration at 3 h ([3]; 2 mg, Part A 2 mg (n = 4), range 0.01-0.04): 0.03 ng/mL
concentration at 1 h ([3]; 6 mg, Part A 6 mg (n = 6), range 0.09-0.64): 0.33 ng/mL
concentration at 3 h ([3]; 6 mg, Part A 6 mg (n = 6), range 0.00-0.06): 0.02 ng/mL
concentration at 3 h ([3]; 6 mg, Part B 6 mg (n = 4), range 0.00-0.09): 0.01 ng/mL
concentration at 1 h ([3]; 12 mg, Part A 12 mg (n = 4), range 0.13-0.29): 0.19 ng/mL
concentration at 3 h ([3]; 12 mg, Part A 12 mg (n = 4), range 0.01-0.01): 0.01 ng/mL
concentration at 1 h ([3]; 18 mg, Part A 18 mg (n = 4), range 0.15-2.42): 0.65 ng/mL
concentration at 3 h ([3]; 18 mg, Part A 18 mg (n = 4), range 0.01-0.24): 0.04 ng/mL
concentration at 3 h ([3]; Part B 6 mg, 12 mg (n = 3), range 0.01-0.05): 0.03 ng/mL
concentration at 3 h ([3]; Part B 6 mg, 12 mg, 18 mg (n = 1), range 0.05-0.05): 0.05 ng/mL

Source: patent publication US20240307350A1, “5-METHOXY-N,N-DIMETHYLTRYPTAMINE (5-MEO-DMT) FOR TREATING DEPRESSION” (GH RESEARCH IRELAND LIMITED, priority 2019, published 2024)
